Measured values published in BindingDB's records for doi:10.1074/jbc.M512374200 (German Cancer Research Center, 2006).

Legend:
[1] = target: T1, Rho-associated protein kinase 2 (Bos taurus, UniProt Q28021); assay: Kinase Inhibition Assay
Experimental: The kinase activity was determined by incubation of enzyme and its substrate, and test compound, in the presence ATP/[gamma-33P] ATP. After incubation, the reaction was stopped, and the 33P-phosphorylated substrate was determined by scintillation counting.

[2] = target: T1, Rho-associated protein kinase 2; assay: Kinase Activity Assay
Experimental: (§1) The enzyme activity was assayed by using an ATP regenerative NADH consuming system. The reaction was started with adding ATP to the mixture containing enzyme, substrate, and inhibitor. The decrease of NADH was time-dependent, and was measured at 340 nm with three independent measurements per data point. IC50 values were calculated using SigmaPlot 8.0 and Origin 5 software.

[3] = target: cAMP-dependent protein kinase catalytic subunit alpha (Bos taurus, UniProt P00517); assay: Kinase Activity Assay; conditions: pH 6.8; 25 °C
Experimental: as §1

[4] = target: cAMP-dependent protein kinase catalytic subunit alpha [E127D] (Bos taurus, UniProt P00517, E127D); assay: Kinase Activity Assay
Experimental: as §1

[5] = target: cAMP-dependent protein kinase catalytic subunit alpha [L49I,Q181K,T183A] (Bos taurus, UniProt P00517, L49I/Q181K/T183A); assay: Kinase Activity Assay
Experimental: as §1

[6] = target: cAMP-dependent protein kinase catalytic subunit alpha [L49I,T183A] (Bos taurus, UniProt P00517, L49I/T183A); assay: Kinase Activity Assay
Experimental: as §1

[7] = target: cAMP-dependent protein kinase catalytic subunit alpha [L49I,V123M,E127D,Q181K,T183A] (Bos taurus, UniProt P00517, E127D/L49I/Q181K/T183A/V123M); assay: Kinase Activity Assay
Experimental: as §1

[8] = target: cAMP-dependent protein kinase catalytic subunit alpha [L49I,V123M,Q181K,T183A] (Bos taurus, UniProt P00517, L49I/Q181K/T183A/V123M); assay: Kinase Activity Assay
Experimental: as §1

[9] = target: cAMP-dependent protein kinase catalytic subunit alpha [L49I] (Bos taurus, UniProt P00517, L49I); assay: Kinase Activity Assay; conditions: pH 6.8; 25 °C
Experimental: as §1

[10] = target: cAMP-dependent protein kinase catalytic subunit alpha [Q181K,T183A] (Bos taurus, UniProt P00517, Q181K/T183A); assay: Kinase Activity Assay
Experimental: as §1

[11] = target: cAMP-dependent protein kinase catalytic subunit alpha [T183A] (Bos taurus, UniProt P00517, T183A); assay: Kinase Activity Assay
Experimental: as §1

[12] = target: cAMP-dependent protein kinase catalytic subunit alpha [V123M,Q181K,T183A] (Bos taurus, UniProt P00517, Q181K/T183A/V123M); assay: Kinase Activity Assay
Experimental: as §1

[13] = target: cAMP-dependent protein kinase catalytic subunit alpha [V123M,T183A] (Bos taurus, UniProt P00517, T183A/V123M); assay: Kinase Activity Assay
Experimental: as §1

[14] = target: cAMP-dependent protein kinase catalytic subunit alpha [V123M] (Bos taurus, UniProt P00517, V123M); assay: Kinase Activity Assay; conditions: pH 6.8; 25 °C
Experimental: as §1

T1 sequence (Q28021 whole entry): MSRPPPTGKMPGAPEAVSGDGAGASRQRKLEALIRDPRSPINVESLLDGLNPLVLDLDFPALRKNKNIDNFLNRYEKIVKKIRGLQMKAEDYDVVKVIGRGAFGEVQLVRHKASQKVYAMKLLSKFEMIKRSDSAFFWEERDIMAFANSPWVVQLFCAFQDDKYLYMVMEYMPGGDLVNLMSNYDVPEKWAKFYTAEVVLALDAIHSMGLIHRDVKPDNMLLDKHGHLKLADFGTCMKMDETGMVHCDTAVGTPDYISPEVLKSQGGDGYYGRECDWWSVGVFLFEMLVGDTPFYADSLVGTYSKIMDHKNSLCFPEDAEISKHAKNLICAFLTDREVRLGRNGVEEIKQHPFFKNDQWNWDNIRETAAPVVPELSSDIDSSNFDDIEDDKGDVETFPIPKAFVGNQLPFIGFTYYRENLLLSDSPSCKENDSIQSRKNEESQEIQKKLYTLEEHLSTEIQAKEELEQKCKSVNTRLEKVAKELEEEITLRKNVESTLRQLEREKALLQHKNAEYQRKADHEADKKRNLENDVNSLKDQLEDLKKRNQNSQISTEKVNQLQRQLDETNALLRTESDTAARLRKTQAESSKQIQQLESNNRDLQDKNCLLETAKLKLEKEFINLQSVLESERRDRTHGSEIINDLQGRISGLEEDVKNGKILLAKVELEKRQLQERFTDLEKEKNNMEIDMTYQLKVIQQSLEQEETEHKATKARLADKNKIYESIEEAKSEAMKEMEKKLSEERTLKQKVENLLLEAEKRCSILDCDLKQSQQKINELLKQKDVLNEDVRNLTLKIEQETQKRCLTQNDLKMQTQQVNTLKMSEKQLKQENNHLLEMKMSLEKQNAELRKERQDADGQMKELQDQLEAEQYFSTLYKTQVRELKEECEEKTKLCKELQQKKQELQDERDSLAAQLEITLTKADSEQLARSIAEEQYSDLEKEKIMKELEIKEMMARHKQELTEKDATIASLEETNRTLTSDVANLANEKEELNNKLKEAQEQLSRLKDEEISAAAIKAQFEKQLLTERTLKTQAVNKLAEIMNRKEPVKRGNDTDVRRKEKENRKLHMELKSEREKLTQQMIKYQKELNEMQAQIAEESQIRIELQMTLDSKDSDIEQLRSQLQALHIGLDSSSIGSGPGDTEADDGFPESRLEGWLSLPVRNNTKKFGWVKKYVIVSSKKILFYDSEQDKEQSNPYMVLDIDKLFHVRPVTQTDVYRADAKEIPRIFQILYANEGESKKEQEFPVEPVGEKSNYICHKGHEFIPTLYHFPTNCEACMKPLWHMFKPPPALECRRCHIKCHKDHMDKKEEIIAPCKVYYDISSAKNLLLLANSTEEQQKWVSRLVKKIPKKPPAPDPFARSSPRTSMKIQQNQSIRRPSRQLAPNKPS

| SMILES | IC50 [1] [nM] | IC50 [2] [nM] | IC50 [3] [nM] | IC50 [4] [nM] | IC50 [5] [nM] | IC50 [6] [nM] | IC50 [7] [nM] | IC50 [8] [nM] | IC50 [9] [nM] | IC50 [10] [nM] | IC50 [11] [nM] | IC50 [12] [nM] | IC50 [13] [nM] | IC50 [14] [nM] |
| --- | --- | --- | --- | --- | --- | --- | --- | --- | --- | --- | --- | --- | --- | --- |
| CN[C@@H]1C[C@H]2O[C@@](C)([C@@H]1OC)n1c3ccccc3c3c4c(c5c6ccccc6n2c5c31)C(=O)NC4 | 1.2 | – | – | – | – | – | – | – | – | – | – | – | – | – |
| C[C@@H](N)[C@H]1CC[C@H](C(=O)Nc2ccncc2)CC1 [4-[(1R)-1-aminoethyl]-N-(pyridin-4-yl)cyclohexane-1-carboxamide] | – | 500 | 42000 | 16000 | 6000 | 12000 | 6000 | 18000 | 28000 | 9000 | 9000 | 25000 | 31000 | 60000 |
| O=S(=O)(c1cccc2cnccc12)N1CCCNCC1 [AT877] | – | 485 | – | – | – | – | – | – | – | – | – | – | – | – |
| Cc1cncc2cccc(S(=O)(=O)N3CCCNC[C@@H]3C)c12 [H-1152] | – | < 45 | 394 | 493 | – | – | – | 89 | 426 | 109 | 109 | 223 | 293 | 1520 |
| CCCCCCOC(=O)[C@]1(O)C[C@@H]2O[C@@]1(C)n1c3ccccc3c3c4c(c5c6ccccc6n2c5c31)C(=O)NC4 [hexyl (15R,16S,18S)-16-hydroxy-15-methyl-3-oxo-28-oxa-4,14,19-triazaoctacyclo[12.11.2.1^{15,18}.0^{2,6}.0^{7,27}.0^{8,13}.0^{19,26}.0^{20,25}]octacosa-1(26),2(6),7(27),8(13),9,11,20(25),21,23-nonaene-16-carboxylate] | – | 1800 | 56 | 1820 | 5540 | – | 1300 | 2010 | 10300 | < 45 | < 45 | 68 | – | 222 |
